{"source": "patent US20230110899A1", "about": "“NOVEL COMPOSITIONS FOR TREATMENT OF CORONAVIRUS DISEASE” (priority 2020, published 2023)", "key": {"[1]": {"tested_on": "SARS-CoV-2 coronavirus", "experiment": "SARS-CoV-2 plaque reduction assay in Vero E6 cells", "type": "cell-based", "conditions": "for Mean PFU/well: n=3"}, "[2]": {"tested_on": "Vero E6 cells", "conditions": "up to 40 μM concentrations"}, "[3]": {"tested_on": "LPS induced ARDS mouse model", "experiment": "LPS induced ARDS mouse model (tracheal instillation of 60 μg of LPS), oral and inhaled", "type": "in vivo, C57BL/6 mice", "conditions": "for blood oxygen saturation (SpO2): 72 h; for blood reticulocyte count: vs LPS negative control"}, "[4]": {"experiment": "Plasma and lung fenretinide exposure, oral and inhaled (Example 3)", "type": "in vivo, C57BL/6 mice", "conditions": "nebulization of 0.65 mg/mL for 30 or 60 min; calculated, confirmed by analysis of lung tissue"}, "[5]": {"tested_on": "MERS-CoV clinical isolate", "conditions": "viral spike (S) protein expression, infected Vero cells, IFA; read-out: 50% inhibitory concentration (IC50); cited from earlier work"}, "[6]": {"tested_on": "Zika virus", "conditions": "in vitro, by targeting nonstructural protein 5; cited from earlier work"}, "[7]": {"tested_on": "Dengue", "conditions": "cited from earlier work"}, "[8]": {"tested_on": "Dengue infection", "conditions": "lethal mouse model; cited from earlier work"}, "[9]": {"tested_on": "Streptococcus suis", "conditions": "acute S. suis infection; cited from earlier work"}, "[10]": {"tested_on": "ERK1/2", "conditions": "macrophages pretreated prior to S. suis infection, vs nontreated infected macrophages; cited from earlier work"}, "[11]": {"tested_on": "Pseudomonas aeruginosa", "conditions": "Cftr.KO mice; cited from earlier work"}, "[12]": {"tested_on": "allergen-sensitized mice", "conditions": "mouse, in vivo; cited from earlier work"}, "[13]": {"tested_on": "Spinal Cord Injury (SCI)", "conditions": "oral administration; cited from earlier work"}, "[14]": {"biological_target": "T1, cytosolic phospholipases (cPLA2) (Homo sapiens, UniProt P47712)", "T1 sequence (P47712 1-749)": "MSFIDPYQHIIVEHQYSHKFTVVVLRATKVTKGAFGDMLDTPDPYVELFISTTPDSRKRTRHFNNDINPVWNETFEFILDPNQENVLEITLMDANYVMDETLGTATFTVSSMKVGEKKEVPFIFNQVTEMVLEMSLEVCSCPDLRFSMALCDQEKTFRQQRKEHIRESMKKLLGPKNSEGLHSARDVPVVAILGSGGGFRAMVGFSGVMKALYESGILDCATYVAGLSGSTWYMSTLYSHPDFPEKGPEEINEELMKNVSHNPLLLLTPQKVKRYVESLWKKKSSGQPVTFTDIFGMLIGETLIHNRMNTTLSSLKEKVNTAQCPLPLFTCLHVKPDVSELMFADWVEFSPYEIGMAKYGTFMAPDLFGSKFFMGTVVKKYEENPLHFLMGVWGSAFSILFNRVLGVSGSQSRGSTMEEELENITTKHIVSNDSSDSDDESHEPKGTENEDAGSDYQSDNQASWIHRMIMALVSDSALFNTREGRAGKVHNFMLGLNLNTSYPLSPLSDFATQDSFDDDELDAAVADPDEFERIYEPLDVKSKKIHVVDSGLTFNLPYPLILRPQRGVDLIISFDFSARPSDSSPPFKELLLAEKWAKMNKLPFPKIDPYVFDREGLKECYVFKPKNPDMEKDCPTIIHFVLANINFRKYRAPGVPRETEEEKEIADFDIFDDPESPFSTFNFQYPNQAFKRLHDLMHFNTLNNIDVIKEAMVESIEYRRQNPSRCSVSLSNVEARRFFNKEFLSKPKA", "conditions": "cited from earlier work"}, "[15]": {"tested_on": "adult CF patients experiencing pulmonary exacerbation", "conditions": "cited from earlier work"}, "[16]": {"conditions": "inhaled fenretinide 1.8 μg/kg, 72 hours"}, "[17]": {"conditions": "inhaled fenretinide 3.6 μg/kg, 72 hours"}}, "note": "Several values for one entry are separate records, joined by “and”; a condition that tells them apart may be missing. Equal values may be shown once.", "data": [{"smiles": "CCC(CC)COC(=O)[C@H](C)N[P@](=O)(OC[C@H]1O[C@@](C#N)(c2ccc3c(N)ncnn23)[C@H](O)[C@@H]1O)Oc1ccccc1", "note": "[Remdesivir]", "values": [{"measurement": "% virus survival", "setting": "[1]; remdesivir 0.625 μM", "result": 90.9, "unit": "%"}, {"measurement": "Plaque forming unit counts, Wells 1-3 (individual counts/well)", "setting": "[1]; remdesivir 0.625 μM", "result": "25 (2×) and 20"}, {"measurement": "Mean PFU/well", "setting": "[1]; remdesivir 0.625 μM", "result": 23.3, "unit": "PFU/well"}, {"measurement": "% virus survival", "setting": "[1]; remdesivir 1.25 μM", "result": 42.9, "unit": "%"}, {"measurement": "Plaque forming unit counts, Wells 1-3 (individual counts/well)", "setting": "[1]; remdesivir 1.25 μM", "result": "10 and 11 and 12"}, {"measurement": "Mean PFU/well", "setting": "[1]; remdesivir 1.25 μM", "result": 11.0, "unit": "PFU/well"}, {"measurement": "Plaque forming unit counts, Wells 1-3 (individual counts/well)", "setting": "[1]; remdesivir 2.5 μM", "result": "5 (2×) and 2"}, {"measurement": "Mean PFU/well", "setting": "[1]; remdesivir 2.5 μM", "result": 4.0, "unit": "PFU/well"}, {"measurement": "% virus survival", "setting": "[1]; remdesivir 5 μM", "result": 2.6, "unit": "%"}, {"measurement": "Plaque forming unit counts, Wells 1-3 (individual counts/well)", "setting": "[1]; remdesivir 5 μM", "result": "1 (2×) and 0"}, {"measurement": "Mean PFU/well", "setting": "[1]; remdesivir 5 μM", "result": 0.7, "unit": "PFU/well"}, {"measurement": "% virus survival", "setting": "[1]; remdesivir 10 μM", "result": 0, "unit": "%"}, {"measurement": "Plaque forming unit counts, Wells 1-3 (individual counts/well)", "setting": "[1]; remdesivir 10 μM", "result": 0}, {"measurement": "Mean PFU/well", "setting": "[1]; remdesivir 10 μM", "result": 0.0, "unit": "PFU/well"}, {"measurement": "% virus survival", "setting": "[1]; remdesivir 20 μM", "result": 0.0, "unit": "%"}, {"measurement": "Plaque forming unit counts, Wells 1-3 (individual counts/well)", "setting": "[1]; remdesivir 20 μM", "result": 0}, {"measurement": "Mean PFU/well", "setting": "[1]; remdesivir 20 μM", "result": 0.0, "unit": "PFU/well"}, {"measurement": "% virus survival", "setting": "[1]; remdesivir 40 μM", "result": 0.0, "unit": "%"}, {"measurement": "Plaque forming unit counts, Wells 1-3 (individual counts/well)", "setting": "[1]; remdesivir 40 μM", "result": 0}, {"measurement": "Mean PFU/well", "setting": "[1]; remdesivir 40 μM", "result": 0.0, "unit": "PFU/well"}, {"measurement": "cytopathic effect", "setting": "[2]", "result": "No cytopathic effect"}]}, {"smiles": "CC1=C(/C=C/C(C)=C/C=C/C(C)=C/C(=O)Nc2ccc(O)cc2)C(C)(C)CCC1", "note": "[Fenretinide, 4-hydroxyphenyl retinamide]", "values": [{"measurement": "IC50", "setting": "[1]; Severe acute respiratory syndrome coronavirus 2, Vero C1008, linear regression analysis (FIG. 1), R2=0.92, read-out: IC50, 50% inhibition of virus survival", "result": 1570, "unit": "nM"}, {"measurement": "% survival", "setting": "[1]; fenretinide 0.625 μM", "result": 80.5, "unit": "%"}, {"measurement": "Plaque forming unit counts, Wells 1-3 (individual counts/well)", "setting": "[1]; fenretinide 0.625 μM", "result": "21 and 19 and 22"}, {"measurement": "Mean PFU/well", "setting": "[1]; fenretinide 0.625 μM", "result": 20.7, "unit": "PFU/well"}, {"measurement": "% survival", "setting": "[1]; fenretinide 1.25 μM", "result": 75.3, "unit": "%"}, {"measurement": "Plaque forming unit counts, Wells 1-3 (individual counts/well)", "setting": "[1]; fenretinide 1.25 μM", "result": "14 and 31 and 13"}, {"measurement": "Mean PFU/well", "setting": "[1]; fenretinide 1.25 μM", "result": 19.3, "unit": "PFU/well"}, {"measurement": "% survival", "setting": "[1]; fenretinide 2.5 μM", "result": 24.7, "unit": "%"}, {"measurement": "Plaque forming unit counts, Wells 1-3 (individual counts/well)", "setting": "[1]; fenretinide 2.5 μM", "result": "6 and 3 and 10"}, {"measurement": "Mean PFU/well", "setting": "[1]; fenretinide 2.5 μM", "result": 6.3, "unit": "PFU/well"}, {"measurement": "% survival", "setting": "[1]; fenretinide 5 μM", "result": 0.0, "unit": "%"}, {"measurement": "Plaque forming unit counts, Wells 1-3 (individual counts/well)", "setting": "[1]; fenretinide 5 μM", "result": 0}, {"measurement": "Mean PFU/well", "setting": "[1]; fenretinide 5 μM", "result": 0.0, "unit": "PFU/well"}, {"measurement": "blood oxygen saturation (SpO2)", "setting": "[3]; inhaled fenretinide 1.8 μg/kg", "result": "partially, but significantly, alleviated the reduction of blood oxygen saturation"}, {"measurement": "lung protein concentration", "setting": "[3]; [16]", "result": "reduced the lung protein concentration"}, {"measurement": "blood reticulocyte count", "setting": "[3]; [16]", "result": "significantly increased reticulocyte counts"}, {"measurement": "myeloperoxidase (MPO) activity in the BALF", "setting": "[3]; inhaled fenretinide 1.8 μg/kg, 72 hours, statistically significant vs negative control", "result": "reduced MPO activity"}, {"measurement": "blood oxygen saturation (SpO2)", "setting": "[3]; inhaled fenretinide 3.6 μg/kg", "result": "partially, but significantly, alleviated the reduction of blood oxygen saturation"}, {"measurement": "lung protein concentration", "setting": "[3]; [17]", "result": "reduced the lung protein concentration"}, {"measurement": "blood reticulocyte count", "setting": "[3]; [17]", "result": "significantly increased reticulocyte counts"}, {"measurement": "effective fenretinide dose delivered to the lungs (local lung concentration)", "setting": "[4]", "result": "1 to 3", "unit": "µM"}, {"measurement": "IC50", "setting": "[5]", "result": 2800, "unit": "nM"}, {"measurement": "activity against Zika virus", "setting": "[6]", "result": "potent activity"}, {"measurement": "antiviral activity against Dengue fever disease", "setting": "[7]", "result": "potent antiviral activity"}, {"measurement": "protection against Dengue infection", "setting": "[8]", "result": "can protect against Dengue infection"}, {"measurement": "survival", "setting": "[9]", "result": "significantly improved their survival"}, {"measurement": "ERK1/2 activation", "setting": "[10]", "result": "significant reduction in ERK1/2 activation"}, {"measurement": "pulmonary load of Pseudomonas aeruginosa", "setting": "[11]", "result": "significant decrease in the pulmonary load of Pseudomonas aeruginosa"}, {"measurement": "infiltration of inflammatory cells to the airways", "setting": "[12]", "result": "complete block of infiltration of inflammatory cells to the airways"}, {"measurement": "locomotor recovery", "setting": "[13]", "result": "improved locomotor recovery"}, {"measurement": "activity of cytosolic phospholipases (cPLA2)", "setting": "[14]", "result": "inhibits the activity of cytosolic phospholipases"}, {"measurement": "plasma levels of IL-6, IL-8, IL-10 and neutrophils count", "setting": "[15]; at the onset of the PEx episode", "result": "appeared to improve"}, {"measurement": "lipidomic markers", "setting": "[15]; subgroup with pulmonary exacerbation (PEx)", "result": "normalized the lipidomic markers in a dose-response manner"}]}]}
